Measured values taken from publication PMC6136712, “Ex vivo drug sensitivity testing as a means for drug repurposing in esophageal adenocarcinoma” (PLoS ONE, 2018).
Structures can show the parent of a compound that is named as a salt.

How the values were obtained:
Type in all cases: cell-based, human
[1] = test system: normal esophageal epithelium cell line EACN42; assay: FDA library drug sensitivity testing (CellTiter-Glo, 72 h), normal control cells; set-up: key to DSS: modified drug sensitivity score (DSSmod) from dose-response curve fit; conditions: 72 h, EACN42 normal esophageal cells; for EC50: Homo sapiens, cell viability (ATP), max test concentration 10μM; for DSS: drug sensitivity score
Protocol: The normal esophageal epithelium cell line EACN42 was established in the Capobianco laboratory. The cell lines was derived from human normal epithelium and immortalized using HPV E6-E7.
(§1) Drug sensitivity testing (DST) was performed as described previously. […] Individual drugs were dissolved in 100% DMSO and tested in duplicates starting at a maximal test concentration of 10μM then over a 20,000-fold concentration range to generate dose response curves. Wells with assay buffer containing DMSO served as negative controls. 1000 exponentially growing cells were seeded per well in 384-well micro-titer plates and incubated in the presence of compounds in a humidified environment at 37°C and 5% CO2. After 72 hours of treatment, cell viability was assessed by measuring ATP levels via bioluminescence (CellTiter-Glo, Promega) according to manufactures recommendations. Interpretation of curve parameters was performed according to the modified drug sensitivity scoring (DSSmod) function developed by Swords et al. […] Given in this way, the sDSSmod incorporated information on each drug’s potency, efficacy, effect range and therapeutic index, making it possible to prioritize compounds over multiple parameters using a single numerical metric. […] All calculations and scoring routines are implemented in MatLab and additional curve fitting and statistical analyses are performed in GraphPad prism.

OE33 cells = assay: FDA library drug sensitivity testing (CellTiter-Glo, 72 h); conditions: OE33; sDSSmod = DSSmod (patient cells) - DSSmod (normal cells)
Excerpt: (§2) OE33, OE19 and SKGT2 human esophageal adenocarcinoma cell lines were obtained from the European Collection of Cell Culture ([…]). Flo1, EAC42 and EAC47 cells were established in the Capobianco Laboratory. EAC42 and EAC47 human esophageal adenocarcinoma cell lines are derived from patients undergoing surgery at the Miller School of Medicine, University of Miami. The Capobianco laboratory obtained written informed consent from all patients and approval from the Institutional Research Ethics Committee.
as §1

EAC42 cells = assay: as above; conditions: EAC42; sDSSmod = DSSmod (patient cells) - DSSmod (normal cells)
Excerpt: as §2, §1

EAC47 cells = assay: as above; conditions: EAC47; sDSSmod = DSSmod (patient cells) - DSSmod (normal cells)
Excerpt: as §2, §1

SK-GT2 cells = assay: as above; conditions: SK-GT2; sDSSmod = DSSmod (patient cells) - DSSmod (normal cells)
Excerpt: as §2, §1

| Molecule | EC50 [1] | DSS [1] | other results |
| --- | --- | --- | --- |
| O=c1[nH]cc(F)c(=O)[nH]1 [Adrucil] | 920 nM | 4.47 | sDSSmod (OE33 cells): 10.56 |
| Nc1ncn([C@@H]2O[C@H](CO)[C@@H](O)[C@H]2O)c(=O)n1 [Azacitidine] |  | 0 | sDSSmod (OE33 cells): 23.96 |
| Nc1nc(O)c2[nH]nnc2n1 [Azaguanine-8] |  | 2.04 | sDSSmod (EAC42 cells): 6.077; sDSSmod (OE33 cells): 8.322 |
| COc1cc2nccc(Oc3ccc(NC(=O)C4(C(=O)Nc5ccc(F)cc5)CC4)cc3)c2cc1OC [Cabozantinib] |  | 0 | sDSSmod (OE33 cells): 19.55 |
| CCCCCCNC(=O)n1cc(F)c(=O)[nH]c1=O [Carmofur] | 710 nM | 4.76 | sDSSmod (OE33 cells): 12.42 |
| Nc1nc(Cl)nc2c1ncn2[C@H]1C[C@H](O)[C@@H](CO)O1 [Cladribine] |  | 0.13 | sDSSmod (EAC42 cells): 7.959; sDSSmod (EAC47 cells): 5.947 |
| CC(C)c1nc(CN(C)C(=O)N[C@@H](CCN2CCOCC2)C(=O)N[C@H](CC[C@H](Cc2ccccc2)NC(=O)OCc2cncs2)Cc2ccccc2)cs1 [Cobicistat] |  | 0 | sDSSmod (SK-GT2 cells): 7.685 |
| C[C@@H](Oc1cc(-c2cnn(C3CCNCC3)c2)cnc1N)c1c(Cl)ccc(F)c1Cl [Crizotinib] | 8030 nM |  | sDSSmod (OE33 cells): 22.74 |
| Nc1ccn([C@@H]2O[C@H](CO)[C@@H](O)[C@@H]2O)c(=O)n1 [Cytarabine] | > 10000 nM | 1.34 | sDSSmod (OE33 cells): 6.525 |
| C[C@H](NC(=O)Cc1cc(F)cc(F)c1)C(=O)N[C@H](C(=O)OC(C)(C)C)c1ccccc1 [DAPT] |  | 0 | sDSSmod (SK-GT2 cells): 13.54 |
| C#Cc1cccc(Nc2ncnc3cc(OCCOC)c(OCCO)cc23)c1.Cl [Desmethyl Erlotinib] |  | 3.34 | sDSSmod (SK-GT2 cells): 11.77; sDSSmod (OE33 cells): 8.648 |
| O=c1oc2c(O)c(O)cc3c(=O)oc4c(O)c(O)cc1c4c23 [Ellagic acid] |  | 0 | sDSSmod (OE33 cells): 7.542 |
| COc1cc([C@@H]2c3cc4c(cc3[C@@H](O[C@@H]3O[C@@H]5CO[C@@H](C)O[C@H]5[C@H](O)[C@H]3O)[C@H]3COC(=O)[C@H]23)OCO4)cc(OC)c1O [Etoposide] | > 10000 nM | 4.68 | sDSSmod (EAC42 cells): 5.049; sDSSmod (OE33 cells): 6.55 |
| CNC(=O)CN(CCN(CCN(CC(=O)[O-])CC(=O)NC)CC(=O)[O-])CC(=O)[O-].[Gd+3] [Gadodiamide] |  | 0 | sDSSmod (OE33 cells): 29.62 |
| O=c1c(-c2ccc(O)cc2)coc2cc(O)cc(O)c12 [Genistein] | > 10000 nM | 0.04 | sDSSmod (SK-GT2 cells): 5.117; sDSSmod (OE33 cells): 5.079 |
| NS(=O)(=O)OC[C@@H]1C[C@@H](n2ccc3c(N[C@H]4CCc5ccccc54)ncnc32)C[C@@H]1O [MLN-4924] | > 10000 nM | 0.51 | sDSSmod (EAC42 cells): 17.05; sDSSmod (EAC47 cells): 10.87 |
| O=S(=O)(O)CCS [Mesna] |  | 0 | sDSSmod (SK-GT2 cells): 8.021 |
| COc1ccc2c(c1OC)C(=O)O[C@@H]2[C@H]1c2c(cc3c(c2OC)OCO3)CCN1C [Noscapine HCl] |  | 0 |  |
| CC1COc2c(N3CCN(C)CC3)c(F)cc3c(=O)c(C(=O)O)cn1c23 (stereo not shown) [Ofloxacin] |  | 0 |  |

| Molecule | EC50 [1] | DSS [1] | other results |
| --- | --- | --- | --- |
| O=C1[O][Pt]2([NH][C@@H]3CCCC[C@H]3[NH]2)[O]C1=O [Oxaliplatin] |  | 0.06 | treatment response in words [1]: minimal treatment effects |
| C[C@@]12C[C@@]3(O)O[C@@H](O1)[C@]1(COC(=O)c4ccccc4)[C@H]3C[C@@]12O[C@@H]1O[C@H](CO)[C@@H](O)[C@H](O)[C@H]1O [Paeoniflorin] |  | 0 |  |
| NCCC(O)(P(=O)([O-])O)P(=O)([O-])O.[Na+].[Na+] [Pamidronate Disodium] |  | 0 |  |
| Cc1ccc(Nc2nccc(N(C)c3ccc4c(C)n(C)nc4c3)n2)cc1S(N)(=O)=O [Pazopanib] |  | 0 |  |
| CCCCC1C(=O)N(c2ccccc2)N(c2ccccc2)C1=O [Phenylbutazone] |  | 0 |  |
| CC[C@@H]1/C=C(\C)C[C@H](C)C[C@H](OC)[C@H]2O[C@@](O)(C(=O)C(=O)N3CCCC[C@H]3C(=O)O[C@H](/C(C)=C/[C@@H]3CC[C@H](Cl)[C@H](OC)C3)[C@H](C)[C@@H](O)CC1=O)[C@H](C)C[C@@H]2OC [Pimecrolimus] | 5300 nM | 1.11 |  |
| CCc1ccc(CCOc2ccc(CC3SC(=O)NC3=O)cc2)nc1 (stereo not shown) [Pioglitazone] |  | 0 |  |
| Nc1cccc2c1C(=O)N(C1CCC(=O)NC1=O)C2=O (stereo not shown) [Pomalidomide] | 0.158 nM | 0 |  |
| C[C@]12C=CC(=O)C=C1CC[C@@H]1[C@@H]2C(=O)C[C@@]2(C)[C@H]1CC[C@]2(O)C(=O)CO [Prednisone] |  | 0 |  |
| CNNCc1ccc(C(=O)NC(C)C)cc1 [Procarbazine HCl] |  | 0 |  |
| COc1ccccc1OCC(O)CN1CCN(CC(=O)Nc2c(C)cccc2C)CC1 (stereo not shown) [Ranolazine] |  | 0 | sDSSmod (OE33 cells): 25.89 |
| CNC(=O)c1cc(Oc2ccc(NC(=O)Nc3ccc(Cl)c(C(F)(F)F)c3)c(F)c2)ccn1 [Regorafenib] | > 10000 nM | 1.85 |  |
| CN(CCOc1ccc(CC2SC(=O)NC2=O)cc1)c1ccccn1 (stereo not shown) [Rosiglitazone] |  | 0 |  |
| N#CC[C@H](C1CCCC1)n1cc(-c2ncnc3[nH]ccc23)cn1 [Ruxolitinib] |  | 0 |  |
| CCCC(=O)[O-].[Na+] [Sodium butyrate] |  | 0 |  |
| CNC(=O)c1cc(Oc2ccc(NC(=O)Nc3ccc(Cl)c(C(F)(F)F)c3)cc2)ccn1 [Sorafenib] | 9620 nM | 1.79 |  |
| CC1=C(CC(=O)O)c2cc(F)ccc2/C1=C\c1ccc([S+](C)[O-])cc1 (stereo not shown) [Sulindac] | 50 nM | 0 |  |
| CCN(CC)CCNC(=O)c1c(C)[nH]c(/C=C2\C(=O)Nc3ccc(F)cc32)c1C [Sunitinib Malate] | 10 nM | 0 |  |
| C=CC[C@@H]1/C=C(\C)C[C@H](C)C[C@H](OC)[C@H]2O[C@@](O)(C(=O)C(=O)N3CCCC[C@H]3C(=O)O[C@H](/C(C)=C/[C@@H]3CC[C@@H](O)[C@H](OC)C3)[C@H](C)[C@@H](O)CC1=O)[C@H](C)C[C@@H]2OC [Tacrolimus] |  | 0 |  |

| Molecule | EC50 [1] | DSS [1] | other results |
| --- | --- | --- | --- |
| CC/C(=C(\c1ccccc1)c1ccc(OCCN(C)C)cc1)c1ccccc1 [Tamoxifen Citrate] |  | 0 |  |
| CCOC(=O)[C@H](CCc1ccccc1)N[C@H]1CS[C@H](c2cccs2)CN(CC(=O)O)C1=O [Temocapril HCl] |  | 0 |  |
| O=C1CCC(N2C(=O)c3ccccc3C2=O)C(=O)N1 (stereo not shown) [Thalidomide] |  | 0 |  |
| C[C@@H]1CCN(C(=O)CC#N)C[C@@H]1N(C)c1ncnc2[nH]ccc12 [Tofacitinib citrate] |  | 0 |  |
| CCCCNC(=O)NS(=O)(=O)c1ccc(C)cc1 [Tolbutamide] | 60 nM | 0 |  |
| Cc1cccc(N(C)C(=S)Oc2ccc3ccccc3c2)c1 [Tolnaftate] |  | 0 |  |
| CN(C)CCOc1ccc(/C(=C(/CCCl)c2ccccc2)c2ccccc2)cc1 [Toremifene Citrate] |  | 0 | sDSSmod (OE33 cells): 23.6335 |
| CC1=C(/C=C/C(C)=C/C=C/C(C)=C/C(=O)O)C(C)(C)CCC1 [Tretinoin] |  | 0 |  |
| CC1(C)O[C@@H]2C[C@H]3[C@@H]4CCC5=CC(=O)C=C[C@]5(C)[C@@]4(F)[C@@H](O)C[C@]3(C)[C@]2(C(=O)CO)O1 [Triamcinolone Acetonide] |  | 0 |  |
| CC(C)C[C@H](NC(=O)[C@@H](O)[C@H](N)Cc1ccccc1)C(=O)O [Ubenimex] |  | 0 |  |
| CCCC(CCC)C(=O)O [Valproic acid sodium salt] | 2000 nM | 0 |  |
| CCCS(=O)(=O)Nc1ccc(F)c(C(=O)c2c[nH]c3ncc(-c4ccc(Cl)cc4)cc23)c1F [Vemurafenib] | 50 nM | 0 |  |
| CC[C@]1(O)C[C@@H]2CN(CCc3c([nH]c4ccccc34)[C@@](C(=O)OC)(c3cc4c(cc3OC)N(C)[C@H]3[C@@](O)(C(=O)OC)[C@H](OC(C)=O)[C@]5(CC)C=CCN6CC[C@]43[C@@H]65)C2)C1 [Vinblastine] | > 10000 nM | 1.63 |  |
| CCOC(=O)C1=C[C@]2(CC)CCCN3CCc4c(n1c1ccccc41)[C@@H]32 [Vinpocetine] |  | 0 |  |
| CS(=O)(=O)c1ccc(C(=O)Nc2ccc(Cl)c(-c3ccccn3)c2)c(Cl)c1 [Vismodegib] |  | 0 |  |
| CC(c1cc2ccccc2s1)N(O)C(N)=O (stereo not shown) [Zileuton] |  | 0 |  |
| Bacitracin zinc |  | 0 | sDSSmod (OE33 cells): 17.07 |
| Maraviroc |  | 0 | treatment response in words [1]: low or no activity |
